In the supplement of paper PMC4862054:

How the values were obtained:
Details in all cases: 72 h
[1] = test system: MDA-MB-231
Experimental: (§1)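 Drug sensitivity and resistance testing (DSRT) of breast cancer cell lines in 384-well plates, 5 concentrations in 10-fold dilutions over a compound-specific 10,000-fold range. After 72 h, cytotoxicity was read by CellTox Green fluorescence and viability by CellTiter-Glo luminescence (multiplexed), normalised to DMSO and benzethonium chloride controls. EC50 is the inflection point of the fitted dose-response curve (bottom asymptote free, so it can be relative for partial curves) and is censored at the highest tested concentration. Rows with DSS 0 (no meaningful response) were excluded.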

[2] = test system: MCF-10A
Experimental: as §1

[3] = test system: Hs578T
Experimental: as §1

[4] = test system: MDA-MB-231; remark: listed apart in the source
Outline: (§2)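 A 20 µl suspension of breast cancer cells was placed in 384-well plates that already contained compound at 5 concentrations in 10-fold steps across a compound-specific 10,000-fold range, and the plates were left for 72 h. CellTox Green fluorescence at 485/520 nm gave cell death, and CellTiter-Glo luminescence, read after 10 min at room temperature, gave viability. Each plate was normalised to 0.1 % DMSO and a positive kill control. EC50 was fitted from the curves and censored at the top concentration.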

[5] = test system: HCC1599
Outline: as §2

[6] = test system: MDA-MB-453
Outline: as §2

[7] = test system: CAL-148
Outline: as §2

[8] = test system: MCF-10A; remark: listed apart in the source
Outline: as §2

[9] = test system: SK-BR-3
Outline: as §2

[10] = test system: Hs578T; remark: listed apart in the source
Outline: as §2

[11] = test system: CAL-148; remark: listed apart in the source
Outline: (§3)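 For viability, cells received 2.5 µl CellTiter-Blue for 2 h at 37 °C and fluorescence was read at 560/590 nm. Before this, breast cancer cell lines in 20 µl suspension had been incubated for 72 h on 384-well plates pre-loaded with compound dissolved in 5 µl medium. EC50 was obtained from a percent-inhibition dose-response fit censored at the highest concentration, after normalisation of each plate to vehicle and a positive kill control; rows with a zero drug sensitivity score were discarded.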

[12] = test system: HCC1599; remark: listed apart in the source
Outline: as §3

[13] = test system: SK-BR-3; remark: listed apart in the source
Outline: as §3

[14] = test system: MFM-223
Experimental: as §1

[15] = test system: CAL-120
Experimental: as §1

[16] = test system: CAL-51
Experimental: as §1

[17] = test system: CAL-85-1
Experimental: as §1

[18] = test system: HDQ-P1
Outline: as §2

[19] = test system: HCC1143
Outline: as §2

[20] = test system: BT-474
Outline: as §2

[21] = test system: MDA-MB-436
Outline: as §2

[22] = test system: MFM-223; remark: listed apart in the source
Outline: as §2

[23] = test system: DU-4475
Outline: as §2

[24] = test system: MDA-MB-468
Outline: as §2

[25] = test system: CAL-120; remark: listed apart in the source
Outline: as §2

[26] = test system: BT-549
Outline: as §2

[27] = test system: CAL-51; remark: listed apart in the source
Outline: as §2

[28] = test system: CAL-85-1; remark: listed apart in the source
Outline: as §2

[29] = test system: HDQ-P1; remark: listed apart in the source
Outline: as §3

[30] = test system: MDA-MB-453; remark: listed apart in the source
Outline: as §3

[31] = test system: DU-4475; remark: listed apart in the source
Outline: as §3

[32] = test system: CAL-51; remark: listed apart in the source
Outline: as §3

[33] = test system: CAL-85-1; remark: listed apart in the source
Outline: as §3

[34] = test system: HCC1937
Outline: as §3

[35] = test system: HCC1143; remark: listed apart in the source
Outline: as §3

[36] = test system: MDA-MB-231; remark: listed apart in the source
Outline: as §3

[37] = test system: MDA-MB-436; remark: listed apart in the source
Outline: as §3

[38] = test system: MFM-223; remark: listed apart in the source
Outline: as §3

[39] = test system: MDA-MB-468; remark: listed apart in the source
Outline: as §3

[40] = test system: CAL-120; remark: listed apart in the source
Outline: as §3

[41] = test system: Hs578T; remark: listed apart in the source
Outline: as §3

[42] = test system: BT-549; remark: listed apart in the source
Outline: as §3

Compound: CC1=C(/C=C/C(C)=C/C=C/C(C)=C/C(=O)O)C(C)(C)CCC1 [Tretinoin]
- EC50, CellTox Green [1]: 3200 nM
- EC50, CellTox Green [2]: 676 nM
- EC50, CellTox Green [3]: 130 nM
- EC50, CellTiter-Glo [4]: 2600 nM
- EC50, CellTiter-Glo [5]: 5530 nM
- EC50, CellTiter-Glo [6]: 3230 nM
- EC50, CellTiter-Glo [7]: 354 nM
- EC50, CellTiter-Glo [8]: 1990 nM
- EC50, CellTiter-Glo [9]: 2210 nM
- EC50, CellTiter-Glo [10]: 6610 nM
- EC50, CellTiter-Blue viability [11]: 43.5 nM
- EC50, CellTiter-Blue viability [12]: 133 nM
- EC50, CellTiter-Blue viability [13]: 731 nM

Compound: CC[C@@H]1C(=O)N(C)c2cnc(Nc3ccc(C(=O)NC4CCN(C)CC4)cc3OC)nc2N1C1CCCC1 [BI 2536]
- EC50, CellTox Green [1]: 2.26 nM
- EC50, CellTox Green [14]: 2.41 nM
- EC50, CellTox Green [2]: 2.65 nM
- EC50, CellTox Green [15]: 120 nM
- EC50, CellTox Green [3]: 419 nM
- EC50, CellTox Green [16]: 5.72 nM
- EC50, CellTox Green [17]: 24.1 nM
- EC50, CellTiter-Glo [18]: 21.4 nM
- EC50, CellTiter-Glo [19]: 6.01 nM
- EC50, CellTiter-Glo [4]: 2.75 nM
- EC50, CellTiter-Glo [5]: 37.2 nM
- EC50, CellTiter-Glo [20]: 6.44 nM
- EC50, CellTiter-Glo [21]: 2.44 nM
- EC50, CellTiter-Glo [6]: 2.55 nM
- EC50, CellTiter-Glo [22]: 2.27 nM
- EC50, CellTiter-Glo [23]: 10.2 nM
- EC50, CellTiter-Glo [7]: 3.14 nM
- EC50, CellTiter-Glo [8]: 34 nM
- EC50, CellTiter-Glo [24]: 2.04 nM
- EC50, CellTiter-Glo [9]: 2.39 nM
- EC50, CellTiter-Glo [25]: 5.9 nM
- EC50, CellTiter-Glo [10]: 31.6 nM
- EC50, CellTiter-Glo [26]: 4.82 nM
- EC50, CellTiter-Glo [27]: 10.9 nM
- EC50, CellTiter-Glo [28]: 2.42 nM
- EC50, CellTiter-Blue viability [29]: > 1000 nM
- EC50, CellTiter-Blue viability [30]: 2.09 nM
- EC50, CellTiter-Blue viability [31]: 6.01 nM
- EC50, CellTiter-Blue viability [11]: 4.74 nM
- EC50, CellTiter-Blue viability [32]: 12.5 nM
- EC50, CellTiter-Blue viability [33]: 2.85 nM
- EC50, CellTiter-Blue viability [34]: 3.79 nM
- EC50, CellTiter-Blue viability [35]: 6.32 nM
- EC50, CellTiter-Blue viability [36]: 5.71 nM
- EC50, CellTiter-Blue viability [37]: 3.72 nM
- EC50, CellTiter-Blue viability [38]: 1.57 nM
- EC50, CellTiter-Blue viability [39]: 3.48 nM
- EC50, CellTiter-Blue viability [13]: 2.63 nM
- EC50, CellTiter-Blue viability [40]: 3.52 nM
- EC50, CellTiter-Blue viability [41]: 10.5 nM
- EC50, CellTiter-Blue viability [42]: 1.56 nM
